Measurements taken from patent publication US3984501A, “Phenyl- and benzylphosphonate esters” (priority 1975, dated 1976).
Where two headings read alike, the source gives them in different places.

Tests used:
[1] = tested on: PGE2-induced contraction of isolated guinea pig ileum (GPI) and isolated rat fundus (RF); test: Inhibition of PGE2-induced contraction of isolated smooth muscle preparations (anti-prostaglandin activity); format: cell-based; conditions: for IC50: isolated GPI or RF (tissue not specified per value), incubation 15 min initial exposure, 5 min each successive increment, read-out: I.C.50 (vs PGE2)
Procedure: (§1) The following compounds were tested for their effects on isolated smooth muscle preparations ##SPC18##
(§2) the techniques for setting up the isolated guinea pig ileum (GPI) and isolated rat fundus (RF) were those described in Pharmacological Experiments on Isolated Preparations (E. S. Livingston Ltd., Publishers). The tissues were bathed in Krebs solution and isotonic contractions were recorded. To elicit a maximal contraction after the initial equilibration period, the tissue (GPI or RF) was exposed to 20 ng/ml acetylcholine (ACh). After a dose-dependent pattern was established with ACh, the tissue was exposed to 20 ng/ml of PGE2 in order to elicit a maximal prostaglandin-induced contraction. Test doses of PGE2 and ACh which cause 50% of the maximal contractions were determined.
(§3) To test a compound for anti-prostaglandin activity, the tissue was incubated with a compound for a fixed period of time (15 minutes for the initial exposure to the test drug and 5 minutes for each successive increment in concentration) followed by the test dose of PGE2 or ACh to elicit a tissue contraction. Inhibition of contraction was measured as percent reduction in the magnitude of the response to the test dose of PGE2. The concentration of drug which inhibited the test concentration of PGE2 by 50% (I.C.50) was determined from the dose-response curve obtained by plotting concentration versus percent inhibition. Test contractions with ACh determined whether any decrease in contraction amplitude was specific for prostaglandin-induced contractions or a general deterioration of tissue function. The term selectivitiy refers to % inhibition of ACh-induced contractions at compound dosages which inhibi the PGE2 -induced contraction by the indicated percentage.

[2] = tested on: ACh-induced contractions of isolated guinea pig ileum (GPI) and isolated rat fundus (RF); test: Inhibition of ACh-induced contraction of isolated smooth muscle (selectivity); format: cell-based; conditions: for Selectivity: % inhibition of ACh-induced contractions at dosages which inhibit the PGE2-induced contraction by 50%: at 50% inhibition of PGE2-induced contraction; for Selectivity: % inhibition of ACh-induced contractions at dosages which inhibit the PGE2-induced contraction by 70%: at 70% inhibition of PGE2-induced contraction; for Selectivity: % inhibition of ACh-induced contractions at dosages which inhibit the PGE2-induced contraction by 90%: at 90% inhibition of PGE2-induced contraction
Procedure: as §1, §2, §3

[3] = Systemic toxicity in male Swiss Webster mice; format: in vivo, mouse; conditions: mouse, in vivo, in saline, 24 hours, read-out: L.D.50 at 24 hours
Procedure: (§4) Compounds 1-3 were tested for systemic toxicity. Male Swiss Webster mice were injected (i.p. or p.o.) with the test compound dissolved in saline (0.2 ml). The mice were examined every half hour for the first two hours after treatment and every hour for the following four hours. Thereafter the mice were examined irregularly, with a final examination at the end of the 48-hour test.

[4] = Topical toxicity in hairless mice; conditions: mouse, in vivo, topical or ocular, topically, 0.1 ml of 90% PEG, read-out: L.D.50 at 24 hours
Procedure: Topical toxicity was determined at a single dosage level on two hairless mice. The animals were restrained with neck collars. The test compound was applied in a total volume of 0.1 ml of 90% PEG (10% H2 O) spread uniformly over the back by means of a Q-tip.

male Swiss Webster mice = test: Systemic toxicity in male Swiss Webster mice; format: in vivo, mouse; conditions: from Table 2, vs compound 1
Procedure: as §4

Structure (SMILES)	IC50 ([1]; Cavia porcellus) [nM]	Selectivity: % inhibition of ACh-induced contractions at dosages which inhibit the PGE2-induced contraction by 50% [2] [%]	Selectivity: % inhibition of ACh-induced contractions at dosages which inhibit the PGE2-induced contraction by 70% [2] [%]	Selectivity: % inhibition of ACh-induced contractions at dosages which inhibit the PGE2-induced contraction by 90% [2]	LD50 at 24 h ([3]; ip) [mg/kg]	LD50 at 24 h ([3]; po) [mg/kg]	LD50 at 24 h [4] [mg/kg]	IC50 [1] [nM]	toxicity relative to compound 1 (male Swiss Webster mice)	times more potent than compound 1 ([1]; potency ratio vs compound 1, from Table 1)	times more potent than compound 2 ([1]; potency ratio vs compound 2, from Table 1)
O=C(c1ccc(OP(=O)(O)Oc2ccccc2)cc1)C(Cc1ccccc1)Cc1ccc(Cl)cc1 (centres unmarked) [Compound 1, reference compound]	47	0	0	0%	194	235	> 4300	–	–	–	–
O=C(c1ccc(OP(=O)(O)c2ccccc2)cc1)C(Cc1ccccc1)Cc1ccc(Cl)cc1 (centres unmarked) [Compound 2]	–	0	0	30%	361	–	–	200	considerably less toxic than compound 1	–	–
O=C(c1ccc(OP(=O)(O)Cc2ccccc2)cc1)C(Cc1ccccc1)Cc1ccc(Cl)cc1 (centres unmarked) [Compound 3]	–	0	0	10-15%	408	715	> 4350	6.1	considerably less toxic than compound 1	about 8 times	approximately 30 times
